From publication PMC8301783, “Pitfalls of NMDA Receptor Modulation by Neuroactive Steroids. The Effect of Positive and Negative Modulation of NMDA Receptors in an Animal Model of Schizophrenia” (Biomolecules, 2021)

Biological target: T1, GABAA receptor (GABAAR)
T1 construct: native receptors in rat cerebral cortex membrane homogenates
Assay: […]TBPS radioligand displacement, rat cortex membranes
Format: binding

CC(=O)[C@H]1CC[C@H]2[C@@H]3CC[C@@H]4C[C@H](OC(=O)[C@@H](N)CCC(=O)O)CC[C@]4(C)[C@H]3CC[C@]12C [PA-Glu, pregnanolone glutamate]
IC50: 7.5 µM
